Reference: PubChem BioAssay (NCI)
“And” between values parts separate entries of the source, which are not always exact repeats. Equal entries are not always repeated.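 Where inhibition never reached the appropriate level, the endpoint shown equals the highest concentration tested. Otherwise, values were interpolated linearly from a five-concentration, 48-hour dose response in 96-well plates. GI50 is the concentration that inhibits growth by half. TGI denotes the concentration required for complete inhibition of growth.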

Key:
Assay in all cases: inhibition of tumour cell growth, NCI panel, 48 h
[1] = system: SK-MEL-28 melanoma
[2] = system: OVCAR-4 ovarian
[3] = system: NCI-H226 lung
[4] = system: CCRF-CEM leukemia
[5] = system: UACC-62 melanoma
[6] = system: NCI-H460 lung
[7] = system: NCI/ADR-RES ovarian
[8] = system: MDA-MB-231 breast

Compound	GI50 [1]	TGI [1]	GI50 [2]	TGI [2]	GI50 [3]	TGI [3]	GI50 [4]	TGI [4]	GI50 [5]	TGI [5]	GI50 [6]	TGI [6]	TGI [7]	TGI [8]	GI50 [7]	GI50 [8]
CC/C(=C(/CC)c1ccc(O)cc1)c1ccc([O-])cc1.CC/C(=C(/CC)c1ccc(O)cc1)c1ccc([O-])cc1.O=C([CH-]C(=O)c1ccccc1)c1ccccc1.O=C([CH-]C(=O)c1ccccc1)c1ccccc1.[Ti+4]	15.8 µM	> 100 µM	24.8 µM	> 100 µM	23.6 µM	45.5 µM	4.57 µM	> 100 µM	6.61 µM	25.5 µM	13.1 µM	25.8 µM				
COc1cc(C(c2cc3c(cc2O)OCO3)N2CCCCC2)cc(OC)c1OC (stereo not drawn)		32 µM		25.2 µM		41.6 µM		19.2 µM		30.6 µM		45.8 µM	39.2 µM	29.3 µM		
CN1CCCCCC(=N\O)/C(=N/O)CCCCC1		> 100 µM				> 100 µM		> 100 µM				> 100 µM	> 100 µM	> 100 µM		
NC(=O)c1ccc2c(-c3ccnc(NCCCO)n3)c(-c3ccc(F)cc3)nn2c1	> 25 µM	> 25 µM	> 25 µM	> 25 µM	> 25 µM	> 25 µM	> 25 µM	> 25 µM	> 25 µM	> 25 µM	> 25 µM	> 25 µM	> 25 µM	> 25 µM	> 25 µM	> 25 µM
O=c1[nH]ccc2nc(N3CCC(O)CC3)nc(Nc3cccc(C(F)(F)F)c3)c12	4.63 µM	17.4 µM	1.73 µM	36.4 µM	3.2 µM	17.7 µM	2.1 µM	> 100 µM	1.84 µM	6.95 µM	1.62 µM	15 µM	7.33 µM	> 100 µM	2.37 µM	12.2 µM
CCCN1CCN(c2ccc3nc(-c4ccc5nc(-c6cc(OC)ccc6OC)[nH]c5c4)[nH]c3c2)CC1	18.9 µM	35.9 µM	1.98 µM	3.85 µM	20.2 µM	46 µM	2.22 µM	4.49 µM	19 µM	34.7 µM	1.91 µM	3.56 µM	4.29 µM	3.27 µM	1.99 µM	1.74 µM
O=C(Nc1ccc(F)cc1F)c1cc(Br)ccc1O	1.43 µM	6.24 µM	2.1 µM	92 µM	2.62 µM	23.8 µM	3.71 µM	69.3 µM	1.23 µM	3.82 µM	2.9 µM	> 100 µM	18.2 µM	7.95 µM	2.86 µM	2.26 µM
Cc1cc2cc3c(C)cc(=O)oc3c(C)c2o1		> 100 µM		> 100 µM		> 100 µM		> 100 µM		> 100 µM		> 100 µM	> 100 µM	> 100 µM		
O=C(CC12CC3CC(CC(C3)C1)C2)NCCOCCOCCOCCNC(=O)c1cc2c(o1)C(=O)c1ccccc1C2=O	1.7 µM	3.27 µM	1.12 µM	2.33 µM	1.75 µM	4 µM	2.72 µM	20.7 µM	0.343 µM	1.19 µM	0.398 µM	1.44 µM	7.65 µM	9.81 µM	2.47 µM	2.43 µM
Cc1cccc(Cl)c1NC(=O)/C=C/c1ccccc1		> 100 µM		70.1 µM		> 100 µM		> 100 µM		> 100 µM		> 100 µM		> 100 µM		
O=C1NC(=S)NC(=O)C1=Cc1cccc2cc3ccccc3cc12		6.58 µM		4.75 µM		4.62 µM				3.53 µM		4.82 µM	5.89 µM	3.69 µM		
O=[N+]([O-])c1ccc(N=Nc2c(O)ccc3ccccc23)cc1		> 100 µM	24.3 µM and > 100 µM	65.7 µM and > 100 µM	35.4 µM and > 100 µM	> 100 µM	28.4 µM and > 100 µM	> 100 µM	18.3 µM and > 100 µM	> 100 µM		> 100 µM		> 100 µM		
CC(C)CNc1nc(-c2ccccc2)nc2ccccc12	17.3 µM	32.7 µM	13.5 µM	30 µM	16.9 µM	35 µM	15.3 µM	36.6 µM	14.6 µM	29.4 µM	17.2 µM	41.1 µM	31.4 µM		13.4 µM	
NC(=N\N=C/c1cccc([N+](=O)[O-])c1)/C(N)=N\N=C/c1cccc([N+](=O)[O-])c1	> 100 µM	> 100 µM			> 100 µM	> 100 µM	> 100 µM	> 100 µM	> 100 µM	> 100 µM			> 100 µM	> 100 µM	> 100 µM	> 100 µM
c1cc(OCCN2CCCCC2)ccc1CNc1ccc2nc(CCC3CCCCC3)[nH]c2c1			2.8 µM	12.3 µM	1.83 µM	4.29 µM	1.97 µM	8.34 µM	1.95 µM	3.47 µM	1.94 µM	3.97 µM	5.74 µM	3.02 µM	2.21 µM	1.58 µM
Cc1cc(N2CCN(c3ccnc4cc(Cl)ccc34)CC2)nc(NC2CCCCC2)n1			2.08 µM	8.77 µM	3.23 µM	15 µM	2.71 µM	10.1 µM	1.66 µM	3.34 µM	1.88 µM	3.71 µM	3.97 µM	4.09 µM	1.91 µM	2 µM
COc1ccc(-c2ccc(/C=N/n3c(COc4ccc(Cl)cc4Cl)nn(CN4CCN(C)CC4)c3=S)o2)c([N+](=O)[O-])c1	47.8 µM	> 100 µM	59.7 µM	> 100 µM	12.5 µM	31 µM	14.3 µM	47 µM			15 µM	45.1 µM	45.5 µM	> 100 µM	18.1 µM	28.9 µM
COc1ccc(CNc2c3ccccc3nc3ccc(OC)cc23)cc1	1.88 µM	3.68 µM	2.94 µM	10.5 µM	2.54 µM	9.14 µM	3.09 µM	13.3 µM	1.79 µM	3.75 µM	2.46 µM	6.41 µM	7.52 µM	4.69 µM	2.22 µM	1.9 µM
